Laboratory results as given in ChEMBL document CHEMBL4130634, “Discovery of Reversible DNA Methyltransferase and Lysine Methyltransferase G9a Inhibitors with Antitumoral in Vivo Efficacy” (J Med Chem, 2018).

Tests used:
CYP2C9 = CYP2C9 (Homo sapiens, UniProt P11712); test: Inhibition of CYP2C9 in human liver microsomes at 10 uM after 10 mins in presence of NADPH by LC-MS/MS analysis relative to control; type: ADME
[1] = Permeability of the compound at 50 uM after 18 hrs by PAMPA; type: ADME; conditions: read-out: permeability
[2] = Volume of distribution at steady state in RARG2-/-gammac-/- Balb/c mouse at 5 mg/kg, iv administered as single dose by LC-MS/MS analysis; type: ADME, organism-based; conditions: in vivo, read-out: Vdss
[3] = Half life in RARG2-/-gammac-/- Balb/c mouse at 5 mg/kg, iv administered as single dose by LC-MS/MS analysis; type: ADME, organism-based; conditions: in vivo
[4] = AUC (0 to 24 hrs) in RARG2-/-gammac-/- Balb/c mouse at 5 mg/kg, iv administered as single dose by LC-MS/MS analysis; type: ADME, organism-based; parameters: dose 5 mg/kg, time < 24 hr, route intravenous; conditions: in vivo
[5] = target: DNA (cytosine-5)-methyltransferase 1 (Homo sapiens, UniProt P26358); test: Inhibition of human DNMT1 using polydeoxyinosine polydeoxycytosine DNA as substrate after 15 mins in presence of SAM by TR-FRET assay
DNA (cytosine-5)-methyltransferase 1, sequence (P26358 whole entry): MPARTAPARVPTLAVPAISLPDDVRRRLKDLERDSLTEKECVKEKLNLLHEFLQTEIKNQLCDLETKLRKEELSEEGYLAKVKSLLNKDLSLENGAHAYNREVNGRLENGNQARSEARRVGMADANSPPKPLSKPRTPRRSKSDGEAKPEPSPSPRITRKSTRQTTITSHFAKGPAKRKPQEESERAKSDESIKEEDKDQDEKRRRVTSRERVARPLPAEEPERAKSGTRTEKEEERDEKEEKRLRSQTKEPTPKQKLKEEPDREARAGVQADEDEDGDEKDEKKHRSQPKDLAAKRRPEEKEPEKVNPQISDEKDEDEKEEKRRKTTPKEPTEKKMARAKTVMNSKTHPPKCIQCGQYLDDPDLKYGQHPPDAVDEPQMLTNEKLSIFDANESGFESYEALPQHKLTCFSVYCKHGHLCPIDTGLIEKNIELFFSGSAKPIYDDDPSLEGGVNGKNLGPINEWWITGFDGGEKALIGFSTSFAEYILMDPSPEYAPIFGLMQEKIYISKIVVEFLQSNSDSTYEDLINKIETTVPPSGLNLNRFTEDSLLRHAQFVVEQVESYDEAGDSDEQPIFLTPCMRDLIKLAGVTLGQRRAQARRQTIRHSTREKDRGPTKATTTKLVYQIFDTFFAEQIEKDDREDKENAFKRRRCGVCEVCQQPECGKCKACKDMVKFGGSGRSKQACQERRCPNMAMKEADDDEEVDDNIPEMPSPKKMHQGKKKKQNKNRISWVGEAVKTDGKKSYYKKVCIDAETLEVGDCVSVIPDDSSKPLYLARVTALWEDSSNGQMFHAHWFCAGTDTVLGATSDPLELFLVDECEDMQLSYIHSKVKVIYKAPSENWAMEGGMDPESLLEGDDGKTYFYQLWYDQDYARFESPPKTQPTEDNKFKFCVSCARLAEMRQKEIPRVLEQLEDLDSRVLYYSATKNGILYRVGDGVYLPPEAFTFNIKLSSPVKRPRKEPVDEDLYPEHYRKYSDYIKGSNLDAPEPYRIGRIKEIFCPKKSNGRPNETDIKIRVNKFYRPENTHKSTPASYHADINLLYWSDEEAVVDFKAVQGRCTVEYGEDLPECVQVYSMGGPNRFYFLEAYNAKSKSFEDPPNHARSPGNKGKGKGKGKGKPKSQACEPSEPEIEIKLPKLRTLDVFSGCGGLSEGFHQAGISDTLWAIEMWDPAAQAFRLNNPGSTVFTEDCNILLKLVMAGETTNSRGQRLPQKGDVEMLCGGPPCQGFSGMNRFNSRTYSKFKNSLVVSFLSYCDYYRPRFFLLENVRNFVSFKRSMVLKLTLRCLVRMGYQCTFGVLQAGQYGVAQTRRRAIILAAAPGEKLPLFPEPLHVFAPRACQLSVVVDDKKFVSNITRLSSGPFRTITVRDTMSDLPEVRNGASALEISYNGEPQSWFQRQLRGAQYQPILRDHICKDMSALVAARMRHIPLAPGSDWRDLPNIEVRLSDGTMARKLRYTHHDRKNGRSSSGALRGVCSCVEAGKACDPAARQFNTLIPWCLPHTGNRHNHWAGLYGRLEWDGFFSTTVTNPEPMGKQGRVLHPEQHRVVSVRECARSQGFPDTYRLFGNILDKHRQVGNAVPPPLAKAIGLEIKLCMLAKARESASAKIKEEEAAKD

[6] = Clearance in RARG2-/-gammac-/- Balb/c mouse at 5 mg/kg, iv administered as single dose by LC-MS/MS analysis; type: ADME, organism-based; conditions: in vivo
MV4-11 = test: Growth inhibition of human MV4-11 cells after 48 hrs by MTS assay; type: functional; conditions: MV4-11, 48 h
[7] = Growth inhibition of human CEMO1 cells after 48 hrs by MTS assay; type: functional
[8] = target: T1, Histone-lysine N-methyltransferase EHMT2 (Homo sapiens, UniProt Q96KQ7); test: Inhibition of human G9a using biotinylated-H3K9 peptide as substrate after 1 hr in presence of SAM by TR-FRET assay
T1 sequence (Q96KQ7 whole entry): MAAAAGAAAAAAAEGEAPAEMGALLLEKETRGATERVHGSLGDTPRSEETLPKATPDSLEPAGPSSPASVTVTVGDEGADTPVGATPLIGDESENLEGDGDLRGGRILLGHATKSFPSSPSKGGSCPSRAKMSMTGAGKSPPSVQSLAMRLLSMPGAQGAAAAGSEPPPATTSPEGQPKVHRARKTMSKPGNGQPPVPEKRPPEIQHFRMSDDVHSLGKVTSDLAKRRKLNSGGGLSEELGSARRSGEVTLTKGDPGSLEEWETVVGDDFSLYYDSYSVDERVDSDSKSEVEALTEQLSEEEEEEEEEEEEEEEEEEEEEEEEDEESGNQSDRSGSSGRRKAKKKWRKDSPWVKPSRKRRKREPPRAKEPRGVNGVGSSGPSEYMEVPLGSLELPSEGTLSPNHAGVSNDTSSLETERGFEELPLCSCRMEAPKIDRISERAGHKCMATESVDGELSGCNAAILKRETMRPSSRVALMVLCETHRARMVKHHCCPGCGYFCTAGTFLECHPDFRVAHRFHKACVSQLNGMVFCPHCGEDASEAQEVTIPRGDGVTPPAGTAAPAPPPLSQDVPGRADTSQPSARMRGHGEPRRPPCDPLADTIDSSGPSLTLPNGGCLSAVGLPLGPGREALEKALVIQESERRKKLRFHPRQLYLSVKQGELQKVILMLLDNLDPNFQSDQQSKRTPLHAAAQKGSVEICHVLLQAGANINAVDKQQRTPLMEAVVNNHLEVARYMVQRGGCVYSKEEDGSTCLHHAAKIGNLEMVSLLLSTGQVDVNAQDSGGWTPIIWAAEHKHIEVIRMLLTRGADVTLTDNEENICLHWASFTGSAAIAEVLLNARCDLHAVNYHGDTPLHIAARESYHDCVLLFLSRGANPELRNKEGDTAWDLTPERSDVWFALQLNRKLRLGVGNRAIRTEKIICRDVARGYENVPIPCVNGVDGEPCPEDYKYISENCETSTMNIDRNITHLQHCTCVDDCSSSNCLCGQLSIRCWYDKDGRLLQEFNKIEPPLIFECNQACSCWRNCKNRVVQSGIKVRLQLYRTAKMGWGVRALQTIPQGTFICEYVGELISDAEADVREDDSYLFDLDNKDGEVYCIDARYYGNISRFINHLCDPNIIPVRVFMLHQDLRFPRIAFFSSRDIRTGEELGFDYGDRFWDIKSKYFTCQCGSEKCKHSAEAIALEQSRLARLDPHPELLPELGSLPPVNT

[9] = Growth inhibition of human LAL-CUN-2 cells after 48 hrs by MTS assay; type: functional
THLE-2 = test: Growth inhibition of human THLE2 cells after 72 hrs by MTS assay; type: cell-based; conditions: thle-2, 72 h

CYP2C9, sequence (P11712 whole entry): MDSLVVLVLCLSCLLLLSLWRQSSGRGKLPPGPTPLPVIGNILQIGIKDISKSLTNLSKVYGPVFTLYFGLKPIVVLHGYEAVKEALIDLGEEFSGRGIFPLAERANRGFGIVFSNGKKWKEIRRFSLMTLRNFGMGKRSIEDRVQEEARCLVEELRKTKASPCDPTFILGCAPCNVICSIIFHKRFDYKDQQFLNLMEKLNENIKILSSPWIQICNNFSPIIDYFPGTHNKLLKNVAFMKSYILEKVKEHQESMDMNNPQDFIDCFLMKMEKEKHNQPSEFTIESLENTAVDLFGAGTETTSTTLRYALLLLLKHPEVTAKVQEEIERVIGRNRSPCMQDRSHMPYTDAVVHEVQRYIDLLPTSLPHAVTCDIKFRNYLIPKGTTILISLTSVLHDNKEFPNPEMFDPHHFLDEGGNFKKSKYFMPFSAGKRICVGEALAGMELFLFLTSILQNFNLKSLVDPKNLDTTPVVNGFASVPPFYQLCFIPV

With `COc1cc2c(NC3CCN(C4CC4)CC3)cc(-c3ccc(C)o3)nc2cc1OCCCN1CCCC1` the inhibition at 10 min, 10 µM (CYP2C9) was 8%, the Papp at 18 h, 50 µM [1] was 4.04 ×10⁻⁶ cm/s and the Vd [2] was 11.9 L/kg. The half-life [3] was 10.4 h, the AUC(0-t) at 24 h [4] was 8.79 µM·h and the IC50 [5] was 413 nM. For the same molecule, the clearance [6] was 15 mL/min/kg, the GI50 (MV4-11) was 1590 nM and the GI50 [7] was 453 nM. It also gave an IC50 [8] of 22 nM, a GI50 [9] of 1380 nM and an LC50 (THLE-2) of 455 nM.
